Literature values as cited in publication PMC10145264, “Synthesis and Biological Properties of EGFR-Targeted Photosensitizer Based on Cationic Porphyrin” (Pharmaceutics, 2023).

Experiments:
[1] = parameters: method as in doi:10.1016/j.chemphys.2006.07.040, doi:10.1007/BF03356111, doi:10.1016/j.jphotochemrev.2020.100401; conditions: standard value
[2] = parameters: method as in PMID 24063545; conditions: standard value

fluorescence quantum yield (ΦF) [1]: 0.033 | singlet oxygen quantum yield (ΦΔ) [2]: 0.74
Structure (SMILES): C1=Cc2nc1c(-c1ccccc1)c1ccc([n-]1)c(-c1ccccc1)c1nc(c(-c3ccccc3)c3ccc([n-]3)c2-c2ccccc2)C=C1.[Zn+2] [ZnTPP, zinc tetraphenylporphyrin]
